Measurements as given in patent publication US20120052130A1, “GPR 119 MODULATORS” (Pfizer Inc., priority 2009, published 2012).

Tests used:
[1] = target: T1, human GPR119 (Homo sapiens, UniProt Q8TDV5); assay: DiscoverX PathHunter β-arrestin cell assay (U2OS hGPR119 β-arrestin cell line); type: cell-based; details: U2OS hGPR119 β-arrestin cells; each line is a separate determination; read-out: Human B-arrestin Functional EC50
T1 construct: host or cells: U2OS hGPR119 β-arrestin cell line
Procedure: GPR119 agonist activity was also determined with a cell-based assay utilizing DiscoverX PathHunter β-arrestin cell assay technology and their U2OS hGPR119 β-arrestin cell line (DiscoverX Cat #93-0356 C3). In this assay, agonist activation is determined by measuring agonist-induced interaction of β-arrestin with activated GPR119. A small, 42 amino acid enzyme fragment, called ProLink was appended to the C-terminus of GPR119. Arrestin was fused to the larger enzyme fragment, termed EA (Enzyme Acceptor). […]
After 16 hours (overnight) the assay plates were removed from the incubator and varying concentrations of each compound to be tested (diluted in assay buffer (1×HBSS+CaCl2+MgCl2 (Gibco Cat #14025-092), 20 mM HEPES pH 7.0 (Gibco Cat #15630-080) and 0.1% BSA (Sigma Cat # A9576)) were added to the assay plate wells in a volume of 5 microliters (final DMSO concentration was 0.5%). After a 90 minute incubation at 37 degrees Celsius in a humidified environment in 5% carbon dioxide, 12 microliters of Galacton Star β-galactosidase substrate (PathHunter Detection Kit (DiscoveRx Cat #93-0001); prepared as described in the manufacturers assay protocol) was added to each well of the assay plate. The plates were incubated at room temperature and after 60 minutes, changes in the luminescence were read with an Envision 2104 multilabel plate reader at 0.1 seconds per well. […]
T1 sequence (P32121 whole entry partner, one chain of several): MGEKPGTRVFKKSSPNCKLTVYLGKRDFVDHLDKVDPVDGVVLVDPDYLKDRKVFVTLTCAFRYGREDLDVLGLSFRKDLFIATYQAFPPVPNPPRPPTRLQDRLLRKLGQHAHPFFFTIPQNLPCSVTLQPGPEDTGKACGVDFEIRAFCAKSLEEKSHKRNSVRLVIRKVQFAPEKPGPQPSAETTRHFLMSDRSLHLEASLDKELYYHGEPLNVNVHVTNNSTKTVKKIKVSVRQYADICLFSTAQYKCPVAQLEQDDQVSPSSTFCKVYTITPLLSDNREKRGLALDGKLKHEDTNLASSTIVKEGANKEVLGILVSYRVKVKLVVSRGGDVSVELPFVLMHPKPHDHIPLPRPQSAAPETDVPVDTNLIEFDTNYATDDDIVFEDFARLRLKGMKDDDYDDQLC

[2] = target: T2, human GPR119 (Homo sapiens, UniProt Q8TDV5); assay: β-lactamase reporter functional assay for GPR119 agonists (hGPR119 HEK293-CRE beta-lactamase cells); type: cell-based; parameters: host or cells: hGPR119-HEK293-CRE-beta-lactamase cells; details: hGPR119 HEK293-CRE beta-lactamase cells; each line is a separate determination; read-out: Human B-lactamase Functional EC50
T2 sequence (Q8TDV5 1-335): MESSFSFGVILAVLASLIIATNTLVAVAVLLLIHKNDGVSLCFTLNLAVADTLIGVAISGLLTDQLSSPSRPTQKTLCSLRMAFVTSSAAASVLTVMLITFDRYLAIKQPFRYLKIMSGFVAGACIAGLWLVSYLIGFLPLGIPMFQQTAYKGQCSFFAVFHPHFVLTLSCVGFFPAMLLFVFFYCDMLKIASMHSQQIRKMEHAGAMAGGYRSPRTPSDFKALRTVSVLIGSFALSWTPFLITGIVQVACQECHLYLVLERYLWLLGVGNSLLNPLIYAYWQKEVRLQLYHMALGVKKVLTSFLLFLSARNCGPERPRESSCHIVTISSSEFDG
Procedure: The assay for GPR119 agonists utilizes a cell-based (hGPR119HEK293-CRE beta-lactamase) reporter construct where agonist activation of human GPR119 is coupled to beta-lactamase production via a cyclic AMP response element (CRE). GPR119 activity is then measured utilizing a FRET-enabled beta-lactamase substrate, CCF4-AM (Live Blazer FRET-B/G Loading kit, Invitrogen cat #K1027). […] Fluorescence was measured on an EnVision fluorimetric plate reader, excitation 405 nm, emission 460 nm/535 nm. EC50 determinations were made from agonist-response curves analyzed with a curve fitting program using a 4-parameter logistic dose-response equation.

## Cc1c(O[C@@H]2[C@@H]3COC[C@H]2CN(C(=O)OC(C)C)C3)ncnc1N1CCc2cc(S(C)(=O)=O)ccc21 [Example 23, Isopropyl (9-syn)-9-({5-methyl-6-[5-(methylsulfonyl)-2,3-dihydro-1H-indol-1-yl]pyrimidin-4-yl}oxy)-3-oxa-7-azabicyclo[3.3.1]nonane-7-carboxylate]
[1]
  EC50: 37 nM
[2]
  EC50: 64.7 nM

## Cc1c(O[C@@H]2[C@@H]3COC[C@H]2CN(C(=O)OC2(C)CC2)C3)ncnc1N1CCc2ncccc21 [Example 28, 1-Methylcyclopropyl (9-syn)-9-{[6-(2,3-dihydro-1H-pyrrolo[3,2-b]pyridin-1-yl)-5-methylpyrimidin-4-yl]oxy}-3-oxa-7-azabicyclo[3.3.1]nonane-7-carboxylate]
[1]
  EC50: 3.79 nM
